In the OligoGym collection:
HELM strings list units from the 5' end as sugar, base in round brackets, then linkage (d deoxyribose, r ribose, m 2'-O-methyl, p phosphodiester). Strings are as the collection lists them; they lack the last nucleoside at the 3' end of the tested compound. [moe] = 2'-O-(2-methoxyethyl) (MOE); [sp] = phosphorothioate linkage; [m5C] = 5-methylcytosine

molecular target: ATXN2; experiment: mouse, dose not given; details: ASO

Compared with “RNA1{[moe](T)[sp].[moe](T)p.[moe](T)p.[moe](G)p.[moe](T)p.d(T)[sp].d(A)[sp].d([m5C])[sp].d(T)[sp].d(G)[sp].d(T)[sp].d(T)[sp].d(T)[sp].d([m5C])[sp].d(G)[sp].[moe](A)p.[moe]([m5C])p.[moe]([m5C])[sp].[moe](T)}$$$$ (last 3' nucleoside missing)”, “RNA1{[moe](T)[sp].[moe](G)p.[moe]([m5C])p.[moe](T)p.[moe](A)p.d(A)[sp].d([m5C])[sp].d(T)[sp].d(G)[sp].d(G)[sp].d(T)[sp].d(T)[sp].d(T)[sp].d(G)[sp].d([m5C])[sp].[moe]([m5C])p.[moe]([m5C])p.[moe](T)[sp].[moe](T)}$$$$ (last 3' nucleoside missing)” is higher in 3 h FOB score: 5 score 0-7 for the first, 7 score 0-7 for the second.

First: RNA1{[moe](G)[sp].[moe](A)p.[moe](G)p.[moe](T)p.[moe](T)p.d(T)[sp].d(T)[sp].d(T)[sp].d(G)[sp].d([m5C])[sp].d([m5C])[sp].d(T)[sp].d(T)[sp].d([m5C])[sp].d([m5C])[sp].[moe](A)p.[moe](T)p.[moe](T)[sp].[moe](T)}$$$$ (last 3' nucleoside missing)
Second: RNA1{[moe](T)[sp].[moe](G)p.[moe](T)p.[moe](T)p.[moe](T)p.d(G)[sp].d(T)[sp].d(T)[sp].d(T)[sp].d(G)[sp].d(T)[sp].d(T)[sp].d(T)[sp].d(T)[sp].d(A)[sp].[moe](A)p.[moe](G)p.[moe](T)[sp].[moe](A)}$$$$ (last 3' nucleoside missing)
The 3 h FOB score of the first is lower: 1 score 0-7 for the first, 6.5 score 0-7 for the second.

“RNA1{[moe]([m5C])[sp].[moe](T)p.[moe](G)p.[moe](G)p.[moe](A)[sp].d(T)[sp].d(T)[sp].d([m5C])[sp].d(T)[sp].d(G)[sp].d(T)[sp].d(A)[sp].d([m5C])[sp].[moe](T)p.[moe](T)p.[moe](T)[sp].[moe](T)}$$$$ (last 3' nucleoside missing)” and “RNA1{[moe](G)[sp].[moe](A)p.[moe](A)p.[moe](G)p.[moe](T)p.d([m5C])[sp].d(T)[sp].d(T)[sp].d(G)[sp].d(T)[sp].d(T)[sp].d([m5C])[sp].d(A)[sp].d(G)[sp].d(T)[sp].[moe](G)p.[moe](T)p.[moe]([m5C])[sp].[moe]([m5C])}$$$$ (last 3' nucleoside missing)” are the same in 3 h FOB score: 3.75 score 0-7 for the first, 3.75 score 0-7 for the second.

Going from “RNA1{[moe](T)[sp].[moe](G)p.[moe](A)p.[moe](T)p.[moe]([m5C])p.d(T)[sp].d(T)[sp].d(G)[sp].d(T)[sp].d(G)[sp].d(T)[sp].d(A)[sp].d(T)[sp].d(A)[sp].d(T)[sp].[moe](A)p.[moe](T)p.[moe](T)[sp].[moe](A)}$$$$ (last 3' nucleoside missing)” to “RNA1{[moe](T)[sp].[moe](G)p.[moe](A)p.[moe](G)p.[moe](T)p.d(T)[sp].d([m5C])[sp].d(A)[sp].d([m5C])[sp].d([m5C])[sp].d(T)[sp].d(G)[sp].d([m5C])[sp].d(A)[sp].d(T)[sp].[moe]([m5C])p.[moe]([m5C])p.[moe]([m5C])[sp].[moe](A)}$$$$ (last 3' nucleoside missing)”, the 3 h FOB score falls from 6 score 0-7 to 5.75 score 0-7.

Going from “RNA1{[moe](G)[sp].[moe](T)p.[moe](G)p.[moe](T)p.[moe](T)p.d(G)[sp].d([m5C])[sp].d(A)[sp].d([m5C])[sp].d(A)[sp].d(T)[sp].d(A)[sp].d(G)[sp].d(G)[sp].d(T)[sp].[moe](T)p.[moe](A)p.[moe](G)[sp].[moe](A)}$$$$ (last 3' nucleoside missing)” to “RNA1{[moe](G)[sp].[moe](T)p.[moe](T)p.[moe](G)p.[moe]([m5C])p.d(A)[sp].d([m5C])[sp].d(A)[sp].d(T)[sp].d(A)[sp].d(G)[sp].d(G)[sp].d(T)[sp].d(T)[sp].d(A)[sp].[moe](G)p.[moe](A)p.[moe](A)[sp].[moe](T)}$$$$ (last 3' nucleoside missing)”, the 3 h FOB score falls from 6.5 score 0-7 to 6 score 0-7.

First: RNA1{[moe](A)[sp].[moe](T)p.[moe]([m5C])p.[moe](A)p.[moe](A)p.d([m5C])[sp].d(T)[sp].d([m5C])[sp].d([m5C])[sp].d(A)[sp].d(A)[sp].d(A)[sp].d(G)[sp].d(G)[sp].d(T)[sp].[moe](A)p.[moe](G)p.[moe]([m5C])[sp].[moe](A)}$$$$ (last 3' nucleoside missing)
Second: RNA1{[moe]([m5C])[sp].[moe](T)p.[moe](T)p.[moe]([m5C])p.[moe](T)[sp].d([m5C])[sp].d(T)[sp].d(A)[sp].d(T)[sp].d(T)[sp].d(T)[sp].d([m5C])[sp].d(T)[sp].[moe](T)p.[moe](T)p.[moe](G)[sp].[moe](T)}$$$$ (last 3' nucleoside missing)
The 3 h FOB score of the first is higher: 6 score 0-7 for the first, 0 score 0-7 for the second.

Compared with “RNA1{[moe](T)[sp].[moe](G)p.[moe](T)p.[moe](T)p.[moe]([m5C])p.d(T)[sp].d(T)[sp].d([m5C])[sp].d([m5C])[sp].d(A)[sp].d(A)[sp].d(T)[sp].d(T)[sp].d(T)[sp].d([m5C])[sp].[moe](A)p.[moe](G)p.[moe](A)[sp].[moe]([m5C])}$$$$ (last 3' nucleoside missing)”, “RNA1{[moe](G)[sp].[moe](T)p.[moe](G)p.[moe](G)p.[moe](T)[sp].d(G)[sp].d(T)[sp].d(G)[sp].d([m5C])[sp].d(G)[sp].d([m5C])[sp].d(A)[sp].d(T)[sp].[moe](G)p.[moe](T)p.[moe](A)[sp].[moe](G)}$$$$ (last 3' nucleoside missing)” is higher in 3 h FOB score: 0 score 0-7 for the first, 6.75 score 0-7 for the second.

Compared with “RNA1{[moe]([m5C])[sp].[moe](T)p.[moe]([m5C])p.[moe](T)p.[moe]([m5C])[sp].d([m5C])[sp].d(A)[sp].d(T)[sp].d(T)[sp].d(A)[sp].d(T)[sp].d(T)[sp].d(T)[sp].[moe]([m5C])p.[moe](T)p.[moe](T)[sp].[moe]([m5C])}$$$$ (last 3' nucleoside missing)”, “RNA1{[moe](A)[sp].[moe]([m5C])p.[moe](T)p.[moe]([m5C])p.[moe](T)p.d([m5C])[sp].d([m5C])[sp].d(A)[sp].d(T)[sp].d(T)[sp].d(A)[sp].d(T)[sp].d(T)[sp].d(T)[sp].d([m5C])[sp].[moe](T)p.[moe](T)p.[moe]([m5C])[sp].[moe](A)}$$$$ (last 3' nucleoside missing)” is higher in 3 h FOB score: 0 score 0-7 for the first, 1 score 0-7 for the second.

First: RNA1{[moe]([m5C])[sp].[moe](A)p.[moe](T)p.[moe](A)p.[moe]([m5C])p.d(G)[sp].d([m5C])[sp].d(G)[sp].d(G)[sp].d(T)[sp].d(G)[sp].d(A)[sp].d(A)[sp].d(T)[sp].d(T)[sp].[moe]([m5C])p.[moe](T)p.[moe](G)[sp].[moe](T)}$$$$ (last 3' nucleoside missing)
Second: RNA1{[moe](T)[sp].[moe](A)p.[moe]([m5C])p.[moe](T)p.[moe](T)p.[moe](T)p.d(T)[sp].d([m5C])[sp].d(T)[sp].d([m5C])[sp].d(A)[sp].d(T)[sp].d(G)[sp].d(T)[sp].d(G)[sp].d([m5C])[sp].[moe](G)p.[moe](G)[sp].[moe]([m5C])}$$$$ (last 3' nucleoside missing)
The 3 h FOB score of the first is lower: 4 score 0-7 for the first, 5.5 score 0-7 for the second.

First: RNA1{[moe](T)[sp].[moe](G)p.[moe]([m5C])p.[moe](A)p.[moe](A)p.d([m5C])[sp].d(T)[sp].d(T)[sp].d(A)[sp].d(A)[sp].d(T)[sp].d(A)[sp].d(A)[sp].d([m5C])[sp].d([m5C])[sp].[moe](T)p.[moe](T)p.[moe](A)[sp].[moe](G)}$$$$ (last 3' nucleoside missing)
Second: RNA1{[moe](G)[sp].[moe](A)p.[moe](A)p.[moe]([m5C])p.[moe](A)p.d([m5C])[sp].d([m5C])[sp].d(A)[sp].d(T)[sp].d(G)[sp].d(A)[sp].d([m5C])[sp].d(T)[sp].d(G)[sp].d(A)[sp].[moe](T)p.[moe]([m5C])p.[moe]([m5C])[sp].[moe]([m5C])}$$$$ (last 3' nucleoside missing)
The 3 h FOB score of the first is lower: 1.75 score 0-7 for the first, 4 score 0-7 for the second.

Compared with “RNA1{[moe]([m5C])[sp].[moe]([m5C])[sp].[moe]([m5C])[sp].[moe](A)[sp].[moe](A)[sp].d(A)[sp].d(G)[sp].d(G)[sp].d(G)[sp].d(T)[sp].d(T)[sp].d(A)[sp].d(A)[sp].d(T)[sp].d(T)[sp].[moe](A)[sp].[moe](G)[sp].[moe](G)[sp].[moe](A)}$$$$ (last 3' nucleoside missing)”, “RNA1{[moe](T)[sp].[moe](G)p.[moe](G)p.[moe](T)p.d(G)[sp].d(G)[sp].d(T)[sp].d(G)[sp].d(T)[sp].d(G)[sp].d([m5C])[sp].d(G)[sp].d([m5C])[sp].d(A)[sp].[moe](T)p.[moe](G)p.[moe](T)p.[moe](A)[sp].[moe](G)}$$$$ (last 3' nucleoside missing)” is lower in 3 h FOB score: 7 score 0-7 for the first, 6.75 score 0-7 for the second.

First: RNA1{[moe](T)[sp].[moe]([m5C])p.[moe](T)p.[moe](G)p.[moe]([m5C])p.d(T)[sp].d(A)[sp].d(A)[sp].d([m5C])[sp].d(T)[sp].d(G)[sp].d(G)[sp].d(T)[sp].d(T)[sp].d(T)[sp].[moe](G)p.[moe]([m5C])p.[moe]([m5C])[sp].[moe]([m5C])}$$$$ (last 3' nucleoside missing)
Second: RNA1{[moe](G)[sp].[moe](A)p.[moe](A)p.[moe]([m5C])p.[moe](T)p.d(G)[sp].d(G)[sp].d(A)[sp].d(T)[sp].d(T)[sp].d([m5C])[sp].d(T)[sp].d(G)[sp].d(T)[sp].d(A)[sp].[moe]([m5C])p.[moe](T)p.[moe](T)[sp].[moe](T)}$$$$ (last 3' nucleoside missing)
The 3 h FOB score of the first is lower: 3 score 0-7 for the first, 4 score 0-7 for the second.

First: RNA1{[moe]([m5C])[sp].[moe](T)p.[moe]([m5C])p.[moe]([m5C])p.[moe](A)p.d(T)[sp].d(T)[sp].d(A)[sp].d(T)[sp].d(T)[sp].d(T)[sp].d([m5C])[sp].d(T)[sp].d(T)[sp].d([m5C])[sp].[moe](A)p.[moe]([m5C])p.[moe](G)[sp].[moe](T)}$$$$ (last 3' nucleoside missing)
Second: RNA1{[moe](T)[sp].[moe]([m5C])p.[moe](T)p.[moe](T)p.[moe](G)p.d(T)[sp].d(T)[sp].d(G)[sp].d(T)[sp].d(T)[sp].d(G)[sp].d(T)[sp].d(T)[sp].d(T)[sp].d(A)[sp].[moe]([m5C])p.[moe](A)p.[moe](T)[sp].[moe](T)}$$$$ (last 3' nucleoside missing)
The 3 h FOB score of the first is lower: 1 score 0-7 for the first, 3 score 0-7 for the second.

“RNA1{[moe]([m5C])[sp].[moe](T)p.[moe](G)p.[moe]([m5C])p.[moe](T)[sp].d(A)[sp].d(A)[sp].d([m5C])[sp].d(T)[sp].d(G)[sp].d(G)[sp].d(T)[sp].d(T)[sp].[moe](T)p.[moe](G)p.[moe]([m5C])[sp].[moe]([m5C])}$$$$ (last 3' nucleoside missing)” was tested, and the 3 h FOB score was 4 score 0-7.
